Test results taken from ChEMBL document CHEMBL1201862, “PubChem BioAssay data set” (2004).
Where “and” joins values, the source holds several entries; their conditions need not be identical. Equal entries are not always repeated.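 Values below derive from 48-hour exposures of cells grown in 96-well plates, with endpoints linearly interpolated between the two concentrations bracketing the appropriate inhibition level. GI50 marks 50% less growth.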 Calls of active or inactive are those of the source. Cut-off read from the data, not from the text of the source: active = GI50 up to about 1.1 µM and inactive = higher.

Key:
Assay in all cases: DTP human tumour cell line panel, 48 h
OVCAR-5 = test system: OVCAR-5
NCI-H522 = test system: NCI-H522
Hs-578T = test system: Hs-578T
SN12C = test system: SN12C
DU-145 = test system: DU-145
UACC-62 = test system: UACC-62
SF-539 = test system: SF-539
A498 = test system: A498
T47D = test system: T47D
SF-295 = test system: SF-295
K562 = test system: K562
UACC-257 = test system: UACC-257
ACHN = test system: ACHN
UO-31 = test system: UO-31
HL-60 = test system: HL-60
PC-3 = test system: PC-3
CAKI-1 = test system: CAKI-1
HOP-62 = test system: HOP-62
KM12 = test system: KM12
MDA-MB-231 = test system: MDA-MB-231

## COc1ccc(C2=NN(C(=N)S)C(c3ccccc3)C2)cc1 (centres undefined)
OVCAR-5
  GI50: 58.2 µM (inactive)
NCI-H522
  GI50: 25.5 µM (inactive)
Hs-578T
  GI50: 75.7 µM (inactive)
SN12C
  GI50: 39.3 µM (inactive)
DU-145
  GI50: 53.6 µM (inactive)
UACC-62
  GI50: 35.3 µM (inactive)
SF-539
  GI50: 61.5 µM (inactive)
A498
  GI50: 22.8 µM (inactive)
T47D
  GI50: 29.9 µM (inactive)
SF-295
  GI50: 30.3 µM (inactive)
K562
  GI50: 30.1 µM (inactive)
UACC-257
  GI50: 29.2 µM (inactive)
ACHN
  GI50: 36.9 µM (inactive)
UO-31
  GI50: 43.4 µM (inactive)
HL-60
  GI50: 18.2 µM (inactive)
PC-3
  GI50: 34 µM (inactive)
CAKI-1
  GI50: 40.6 µM (inactive)
HOP-62
  GI50: 38.2 µM (inactive)
KM12
  GI50: 35.7 µM (inactive)

## CCCCCCCCCCCCC/C=C(/COCC[N+](C)(C)C)OC(C)=O.CCCCCCCCCCCCCC/C(=C/OCC[N+](C)(C)C)OC(C)=O
OVCAR-5
  GI50: 2.44 µM (inactive)
NCI-H522
  GI50: 1.87 µM (inactive)
Hs-578T
  GI50: 1.91 µM (inactive)
MDA-MB-231
  GI50: 1.78 µM (inactive)
SN12C
  GI50: 3.01 µM (inactive)
DU-145
  GI50: 4.97 µM (inactive)
UACC-62
  GI50: 1.74 µM (inactive)
SF-539
  GI50: 1.85 µM (inactive)
A498
  GI50: 2.49 µM (inactive)
SF-295
  GI50: 0.92 µM (active)
K562
  GI50: 1.71 µM (inactive)
UACC-257
  GI50: 2.99 µM (inactive)
ACHN
  GI50: 1.65 µM (inactive)
UO-31
  GI50: 14.3 µM (inactive)
HL-60
  GI50: 1.64 µM (inactive)
PC-3
  GI50: 2.08 µM (inactive)
CAKI-1
  GI50: 1.58 µM (inactive)
HOP-62
  GI50: 1.65 µM (inactive)
KM12
  GI50: 1.46 µM (inactive)

## CCN(CC)CCC(=O)c1ccc(Oc2ccc(C)cc2)cc1
OVCAR-5
  GI50: 19.5 µM (inactive)
Hs-578T
  GI50: 23.4 µM (inactive)
MDA-MB-231
  GI50: 16.9 µM (inactive)
SN12C
  GI50: 16.7 µM (inactive)
DU-145
  GI50: 29.1 µM (inactive)
UACC-62
  GI50: 17.3 µM (inactive)
SF-539
  GI50: 18.8 µM (inactive)
T47D
  GI50: 18.2 µM (inactive)
SF-295
  GI50: 17.5 µM (inactive)
K562
  GI50: 30.5 µM (inactive)
UACC-257
  GI50: 19.2 µM (inactive)
ACHN
  GI50: 21.1 µM (inactive)
PC-3
  GI50: 17.9 µM (inactive)
CAKI-1
  GI50: 17.3 µM (inactive)
HOP-62
  GI50: 19.1 µM (inactive)
KM12
  GI50: 10.9 µM (inactive)

## O=C1CN(c2cccc(Cl)c2)C(=O)CN1CCN1CC(=O)N(c2cccc(Cl)c2)CC1=O
OVCAR-5
  GI50: > 100 µM (inactive)
NCI-H522
  GI50: > 100 µM (inactive)
Hs-578T
  GI50: > 100 µM (inactive)
SN12C
  GI50: > 100 µM (inactive)
DU-145
  GI50: > 100 µM (inactive)
UACC-62
  GI50: > 100 µM (inactive)
SF-539
  GI50: > 100 µM (inactive)
A498
  GI50: > 100 µM (inactive)
SF-295
  GI50: > 100 µM (inactive)
UACC-257
  GI50: > 100 µM (inactive)
ACHN
  GI50: > 100 µM (inactive)
UO-31
  GI50: > 100 µM (inactive)
HL-60
  GI50: > 100 µM (inactive)
PC-3
  GI50: > 100 µM (inactive)
CAKI-1
  GI50: > 100 µM (inactive)
HOP-62
  GI50: > 100 µM (inactive)
KM12
  GI50: > 100 µM (inactive)

## CCOC(=O)c1cnc2oc(/C=N/N3CC(CN4CCOCC4)OC3=O)cc2c1O (centres undefined)
OVCAR-5
  GI50: > 100 µM (inactive)
Hs-578T
  GI50: > 100 µM (inactive)
MDA-MB-231
  GI50: > 100 µM (inactive)
SN12C
  GI50: > 100 µM (inactive)
DU-145
  GI50: > 100 µM (inactive)
UACC-62
  GI50: > 100 µM (inactive)
SF-539
  GI50: > 100 µM (inactive)
T47D
  GI50: > 100 µM (inactive)
SF-295
  GI50: > 100 µM (inactive)
K562
  GI50: > 100 µM (inactive)
UACC-257
  GI50: > 100 µM (inactive)
ACHN
  GI50: > 100 µM (inactive)
UO-31
  GI50: > 100 µM (inactive)
HL-60
  GI50: > 100 µM (inactive)
PC-3
  GI50: > 100 µM (inactive)
CAKI-1
  GI50: > 100 µM (inactive)
HOP-62
  GI50: > 100 µM (inactive)
KM12
  GI50: > 100 µM (inactive)

## COc1ccc(-c2c(C#N)c(N)n(C3OCC(OC(C)=O)C(OC(C)=O)C3OC(C)=O)c(=S)c2C#N)cc1 (centres undefined)
OVCAR-5
  GI50: 45.7 µM (inactive) and 43.8 µM (inactive)
NCI-H522
  GI50: 38.8 µM (inactive) and 53.3 µM (inactive)
MDA-MB-231
  GI50: 41.7 µM (inactive) and 33 µM (inactive)
SN12C
  GI50: 34.6 µM (inactive) and 34.5 µM (inactive)
DU-145
  GI50: 64.4 µM (inactive) and 60.1 µM (inactive)
UACC-62
  GI50: 30.8 µM (inactive) and 40.9 µM (inactive)
SF-539
  GI50: 88.9 µM (inactive) and 87.9 µM (inactive)
A498
  GI50: 32.7 µM (inactive) and 28.2 µM (inactive)
T47D
  GI50: 14.8 µM (inactive) and 26.7 µM (inactive)
SF-295
  GI50: 46.9 µM (inactive) and 71.4 µM (inactive)
UACC-257
  GI50: > 100 µM (inactive)
ACHN
  GI50: 48.9 µM (inactive) and 40.6 µM (inactive)
UO-31
  GI50: 23.1 µM (inactive) and 22 µM (inactive)
HL-60
  GI50: 17.4 µM (inactive) and 15.2 µM (inactive)
PC-3
  GI50: 32.9 µM (inactive) and 34.4 µM (inactive)
CAKI-1
  GI50: 38.5 µM (inactive) and 23.1 µM (inactive)
HOP-62
  GI50: 40.9 µM (inactive) and 23.6 µM (inactive)
KM12
  GI50: 53.7 µM (inactive) and 50.1 µM (inactive)

## CCOC(=O)C1(C)CCc2sc(N)c(C#N)c21 (centres undefined)
OVCAR-5
  GI50: > 100 µM (inactive)
Hs-578T
  GI50: > 100 µM (inactive)
MDA-MB-231
  GI50: > 100 µM (inactive)
SN12C
  GI50: > 100 µM (inactive)
UACC-62
  GI50: > 100 µM (inactive)
A498
  GI50: > 100 µM (inactive)
T47D
  GI50: > 100 µM (inactive)
K562
  GI50: > 100 µM (inactive)
UACC-257
  GI50: > 100 µM (inactive)
ACHN
  GI50: > 100 µM (inactive)
UO-31
  GI50: > 100 µM (inactive)
HL-60
  GI50: > 100 µM (inactive)
PC-3
  GI50: > 100 µM (inactive)
HOP-62
  GI50: > 100 µM (inactive)
KM12
  GI50: > 100 µM (inactive)

## C=C1CC[C@]2(C)[C@H](CC[C@@]34C[C@@H](CC[C@H]32)[C@@H](C(=O)O)C4)C1(C)C
OVCAR-5
  GI50: > 12.5 µM (inactive)
Hs-578T
  GI50: 6.68 µM (inactive)
MDA-MB-231
  GI50: > 12.5 µM (inactive)
SN12C
  GI50: > 12.5 µM (inactive)
UACC-62
  GI50: > 12.5 µM (inactive)
SF-539
  GI50: 6.19 µM (inactive)
A498
  GI50: 3.69 µM (inactive)
SF-295
  GI50: 8.24 µM (inactive)
K562
  GI50: 4.21 µM (inactive)
UACC-257
  GI50: > 12.5 µM (inactive)
ACHN
  GI50: 8.63 µM (inactive)
UO-31
  GI50: 7.28 µM (inactive)
HL-60
  GI50: 4.7 µM (inactive)
PC-3
  GI50: 10.3 µM (inactive)
CAKI-1
  GI50: > 12.5 µM (inactive)
HOP-62
  GI50: 5.36 µM (inactive)
KM12
  GI50: > 12.5 µM (inactive)
